Patent US12084420B2, “Indoline compounds for inhibiting KIF18A” (Volastra Therapeutics, Inc., priority 2021, dated 2024)

Target: hKIF18A (1-374) (Homo sapiens (Human), UniProt Q8NI77)
Assay: Inhibition of KIF18A microtubule-dependent ATPase activity (ADP-Glo)
Settings: KIF18A microtubule-dependent ATPase activity, biochemical assay
Description: Biological Assays Inhibition of KIF18A Microtubule-Dependent ATPase Activity:
Test compounds were plated in a 3× dilution scheme in a 384-well plate. Assay buffer: 80 mM PIPES (pH 6.9), 1 mM MgCl2, 75 mM KCl, 1 mM EGTA, 1 mM DTT, 0.01% BSA, 0.005% Tween-20, 1 μM Taxol in H2O. […] After incubation at room temperature for 30 min, 2.5 μL of microtubule mix was added [0.2 mg/mL pre-formed microtubules, 2.0 mM ATP in assay buffer], the plate was centrifuged for 30 s and then incubated at 28° C. for 60 min. 5 μL of Promega® ADP-Glo Max R1 was added, the plate was centrifuged for 30 s, and the mixture incubated for 4 h at room temperature. 10 μL of Promega® ADP-Glo Max R2 was added, the plate centrifuged for 30 s, and incubated for 60 min at room temperature. Luminescence was measured with an Envision plate reader, and % Inhibition was calculated for each well as: ([max−min]−[test−min])/[max−min]. IC50 values were calculated from concentration vs. % Inhibition data via a four-parameter variable slope model.

Chain of hKIF18A (1-374) (Q8NI77 whole entry, looked up): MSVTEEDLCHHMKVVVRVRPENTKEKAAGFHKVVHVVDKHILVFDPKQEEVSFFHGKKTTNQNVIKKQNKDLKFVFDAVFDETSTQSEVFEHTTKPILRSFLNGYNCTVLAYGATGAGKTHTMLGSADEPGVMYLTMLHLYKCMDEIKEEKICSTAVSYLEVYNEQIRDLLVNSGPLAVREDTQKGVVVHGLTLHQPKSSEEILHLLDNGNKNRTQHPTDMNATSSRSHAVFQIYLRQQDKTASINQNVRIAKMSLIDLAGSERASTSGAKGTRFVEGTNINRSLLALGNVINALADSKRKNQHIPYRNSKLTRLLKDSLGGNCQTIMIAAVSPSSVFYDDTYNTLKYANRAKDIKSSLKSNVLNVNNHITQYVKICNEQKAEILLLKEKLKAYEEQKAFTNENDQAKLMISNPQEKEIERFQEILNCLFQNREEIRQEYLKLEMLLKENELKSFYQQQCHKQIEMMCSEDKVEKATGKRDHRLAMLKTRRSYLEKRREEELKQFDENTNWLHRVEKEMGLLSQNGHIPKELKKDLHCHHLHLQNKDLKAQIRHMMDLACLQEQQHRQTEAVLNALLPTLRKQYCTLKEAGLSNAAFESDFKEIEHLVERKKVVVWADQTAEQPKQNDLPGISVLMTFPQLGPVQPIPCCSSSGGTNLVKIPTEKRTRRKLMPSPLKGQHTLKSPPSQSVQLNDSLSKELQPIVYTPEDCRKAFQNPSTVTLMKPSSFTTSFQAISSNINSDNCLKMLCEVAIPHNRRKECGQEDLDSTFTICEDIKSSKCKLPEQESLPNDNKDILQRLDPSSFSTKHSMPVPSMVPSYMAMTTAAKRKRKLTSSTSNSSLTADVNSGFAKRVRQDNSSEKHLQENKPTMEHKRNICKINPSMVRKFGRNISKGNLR
Chain of hKIF18A (1-374) (Q2XVP4 whole entry partner, looked up): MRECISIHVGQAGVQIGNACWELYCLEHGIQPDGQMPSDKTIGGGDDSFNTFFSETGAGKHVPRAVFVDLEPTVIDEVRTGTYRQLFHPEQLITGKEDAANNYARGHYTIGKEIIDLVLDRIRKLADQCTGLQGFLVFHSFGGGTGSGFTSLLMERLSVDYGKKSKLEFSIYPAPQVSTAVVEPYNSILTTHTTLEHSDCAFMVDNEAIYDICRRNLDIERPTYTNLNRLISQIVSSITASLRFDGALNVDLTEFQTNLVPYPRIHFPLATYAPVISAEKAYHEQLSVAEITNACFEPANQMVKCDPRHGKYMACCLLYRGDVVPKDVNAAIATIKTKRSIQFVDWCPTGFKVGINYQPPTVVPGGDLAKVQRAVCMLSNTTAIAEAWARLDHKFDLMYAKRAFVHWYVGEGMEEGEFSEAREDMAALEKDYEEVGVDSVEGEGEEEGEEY
Chain of hKIF18A (1-374) (P02554 whole entry partner, looked up): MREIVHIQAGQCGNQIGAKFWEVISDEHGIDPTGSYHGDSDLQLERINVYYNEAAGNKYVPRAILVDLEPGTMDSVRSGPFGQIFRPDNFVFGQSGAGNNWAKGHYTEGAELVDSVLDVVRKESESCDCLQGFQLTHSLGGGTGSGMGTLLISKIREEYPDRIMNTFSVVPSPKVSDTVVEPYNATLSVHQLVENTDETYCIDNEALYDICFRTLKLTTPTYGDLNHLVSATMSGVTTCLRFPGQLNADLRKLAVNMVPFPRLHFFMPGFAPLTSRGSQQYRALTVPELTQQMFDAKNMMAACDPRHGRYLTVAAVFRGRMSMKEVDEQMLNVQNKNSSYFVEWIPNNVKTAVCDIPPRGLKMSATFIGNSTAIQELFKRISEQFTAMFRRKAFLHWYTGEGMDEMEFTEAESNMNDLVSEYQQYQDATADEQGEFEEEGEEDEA

SMILES	IC50
CC(C)(C)NS(=O)(=O)c1csc(C(=O)N2CC3(CCC4(CC4)CC3)c3cc(NS(C)(=O)=O)ccc32)c1 [Compound 268, N-(tert-butyl)-5-(5″- (methylsulfonamido)dispiro[cyclopropane-1,1′-cyclohexane-4′,3″-indoline]-1″-carbonyl)thiophene-3-sulfonamide]	77 nM
CS(=O)(=O)Nc1ccc2c(c1)C1(CCC3(CC3)CC1)CN2C(=O)c1cccc([S+]([O-])C2CCCC2)c1 (centres unmarked) [Compound 270, N-(1″-(3-(cyclopentylsulfinyl)benzoyl)dispiro [cyclopropane-1,1′-cyclohexane-4′,3″- indolin]-5″-yl)methanesulfonamide]	110 nM
CCS(=O)(=O)Nc1ccc2c(c1)C1(CCC(F)(F)CC1)CN2C(=O)c1cc(S(=O)(=O)N2CC3(CCC3)C2)cs1 [Compound 272, N-(1′-(4-((2-azaspiro[3.3]heptan-2-yl)sulfonyl)thiophene-2-carbonyl)-4,4-difluorospiro[cyclohexane-1,3′-indolin]-5′-yl)ethanesulfonamide]	38 nM
CC(C)(C)NS(=O)(=O)c1cc(C(=O)N2CC3(CCC4(CC4)CC3)c3cc(NS(=O)(=O)CCO)ccc32)cs1 [Compound 274, N-(tert-butyl)-4-(5″-((2-hydroxyethyl)sulfonamido)dispiro [cyclopropane-1,1′-cyclohexane-4′,3″- indoline]-1″-carbonyl)thiophene-2-sulfonamide]	6 nM
CCS(=O)(=O)Nc1ccc2c(c1)C1(CCC3(CC3)CC1)CN2C(=O)c1csc(S(=O)(=O)NC(C)(C)C)c1 [Compound 275, N-(tert-butyl)-4-(5″- (ethylsulfonamido)dispiro[cyclopropane-1,1′-cyclohexane-4′,3″-indoline]-1″- carbonyl)thiophene-2-sulfonamide]	8 nM
CC(C)(C)NS(=O)(=O)c1cc(C(=O)N2CC3(CCC(F)(F)CC3)c3cc(NS(C)(=O)=O)ccc32)cs1 [Compound 277, N-(tert-butyl)-4-(4,4-difluoro-5′-(methylsulfonamido)spiro[cyclohexane-1,3′-indoline]-1′-carbonyl)thiophene-2-sulfonamide]	41 nM
CS(=O)(=O)Nc1ccc2c(c1)C1(CCC3(CC3)CC1)CN2C(=O)c1csc(S(=O)(=O)N2CC3(CCC3)C2)c1 [Compound 279, N-(1″-(5-((2-azaspiro[3.3]heptan-2-yl)sulfonyl)thiophene-3-carbonyl)dispiro[cyclopropane-1,1′-cyclohexane-4′,3″-indolin]-5″- yl)methanesulfonamide]	6.3 nM
CS(=O)(=O)Nc1ccc2c(c1)C1(CCC3(CC3)CC1)CN2C(=O)c1csc(S(=O)(=O)N2CCC(F)(F)CC2)c1 [Compound 281, N-(1″-(5-((4,4-difluoropiperidin-1-yl)sulfonyl)thiophene-3-carbonyl)dispiro[cyclopropane-1,1′-cyclohexane-4′,3″-indolin]-5″- yl)methanesulfonamide]	13 nM
CS(=O)(=O)Nc1ccc2c(c1)C1(CCC3(CC3)CC1)CN2C(=O)c1csc(S(=O)(=O)N2CC3(CCO3)C2)c1 [Compound 283, N-(1″-(5-((1-oxa-6-azaspiro[3.3]heptan-6-yl)sulfonyl)thiophene-3-carbonyl)dispiro[cyclopropane-1,1′-cyclohexane-4′,3″-indolin]-5″- yl)methanesulfonamide]	18 nM
CS(=O)(=O)Nc1ccc2c(c1)C1(CCCCC1)CN2C(=O)c1csc(S(=O)(=O)NC2CCC2)c1 [Compound 284, N-cyclobutyl-4-(5′-(methylsulfonamido)spiro[cyclohexane-1,3′-indoline]-1′-carbonyl)thiophene-2-sulfonamide]	26 nM
CC1CCC(NS(=O)(=O)c2cccc(C(=O)N3CC4(CCC5(CC5)CC4)c4cc(NS(C)(=O)=O)ccc43)c2)C1 (centres unmarked) [Compound 285, N-(3-methylcyclopentyl)-3-(5″- (methylsulfonamido)dispiro[cyclopropane-1,1′-cyclohexane-4′,3″-indoline]-1″-carbonyl)benzenesulfonamide]	11 nM
